Results published in article PMC9968170 (Pharmaceutics, 2023).
pIC50: −log10 of the molar value. Like-named read-outs stand apart in the source and are kept apart here.

Experiments:
[1] = FUR alone 5 mg/kg PO
[2] = cited from earlier work
OAT1 = test system: OAT1; set-up: method as in PMID 16489126, PMID 26700956, PMID 19282394; conditions: human OAT1; cited from earlier work
human Bcrp = conditions: cited from earlier work
OAT3 = test system: OAT3; set-up: method as in PMID 16489126, PMID 26700956, PMID 19282394; conditions: human OAT3; cited from earlier work
[3] = PK of NOV (oral, given with FUR) in rats; format: in vivo, Sprague-Dawley rats; conditions: NOV 20 mg/kg PO; for CL renal: Sprague-Dawley, rat, urine and whole blood, read-out: NOV renal clearance (CLR) (converted)
Method: The rats were housed 2–3 per cage in a specific-pathogen-free facility with controlled light (14/10 h, light/dark cycle), temperature (20–26 °C), and humidity (50 ± 20%).
For groups 2 and 4, the rats were fasted between 4 h prior to dosing and 2 h post-dose with free access to water. […] The blood samples (25 µL) were collected in duplicate in 1 mL tubes and mixed with an equal volume of water containing heparin (30 IU/mL containing 0.05% formic acid) at pre-dose, 0.25, 0.5, 0.75, 1, 1.5, 2, 4, and 6 h.
Next, 300 µL of acetonitrile containing FUR-d5 (as internal standard; 300 ng/mL) was added to 50 µL of the calibration curve standards, QC samples, and rat blood samples to precipitate blood proteins. […] One μL of the sample was injected and LC separation was achieved using an Acquity UPLC HSS T3 column (100Å, 1.8 µm, 1 mm × 100 mm) and mobile phase (A: water with 0.1% formic acid and B: acetonitrile with 0.1% formic acid; 50 μL/min flow) with a gradient program: 0.0–1.5 min (5% B), 1.5–3.5 min (5–70% B), 3.5–5 min (70–90% B), 5–7.5 min (90% B), and 7.5–7.6 min (90–5% B), followed by 5% B until 8.5 min. […] The cone voltage (CV) was 25 V.
Similarly, 25 µL of urine sample (diluted 10-fold with water containing 0.1% formic acid) was mixed with 75 µL of acetonitrile containing 100 ng/mL of FUR-d5.
(1) CLR=Ae 0−6 h/AUC0−6 h where, Ae is the cumulative amount of drug excreted unchanged in the urine between 0 to 6 h.

Bcrp = test system: Bcrp; set-up: method as in PMID 31868552; conditions: rats, cited from earlier work

NS(=O)(=O)c1cc(C(=O)O)c(NCc2ccco2)cc1Cl [FUR, Furosemide]
FUR CLR, male compared to female rats [1]: 2 fold | Fraction excreted unchanged in urine, fe [2]: ≈ 65%

CO[C@@H]1[C@@H](OC(N)=O)[C@@H](O)[C@H](Oc2ccc3c(O)c(NC(=O)c4ccc(O)c(CC=C(C)C)c4)c(=O)oc3c2C)OC1(C)C [NOV, Novobiocin]
pIC50 (OAT1): 4.46 | pIC50 (human Bcrp): […] | pIC50 (OAT3): 5.30 | AUC and Cmax of NOV, male vs female rats [3]: comparable | CL renal ([3]; female rats): 0.00833 mL/min | CL renal ([3]; male rats): 0.0383 mL/min | Food-effect on the PK of NOV ([3]; fed vs fasted state): no food-effect

O=C(O)c1cc(/N=N/c2ccc(S(=O)(=O)Nc3ccccn3)cc2)ccc1O [sulfasalazine]
Effect of NOV on systemic clearance of sulfasalazine (Bcrp; intravenous dosing): not influenced | Increase of sulfasalazine AUC with NOV coadministration (Bcrp; oral administration): 3.2 fold | Increase of sulfasalazine Cmax with NOV coadministration (Bcrp; oral administration): 5.9 fold
